In patent US20050287514A1, “Compositions and methods useful for HCV infection” (Vertex Pharmaceuticals Incorporated, priority 2003, published 2005):

System: HCV
Experiment: Inhibition of HCV infection of cryopreserved human fetal liver cells (cell-associated HCV RNA by multiplex RT-PCR)
Assay type: cell-based
Conditions: VX-950 at 0.2 uM or greater; cryopreserved human fetal liver cells in HDM2; 15 hours inoculation plus additional 47 hours incubation
Method: FIG. 3 depicts the inhibition of HCV infection of cryopreserved human fetal liver cells by the HCV NS3·4a protease inhibitor VX-950 (see WO 02/18369).
Cryopreserved human fetal liver cells were thawed and allowed to adhere to wells of a collagen coated 96-well plate for 6 hours at 37° C. Non-adherent cells were removed and medium replaced with hormonally defined medium containing DMEM, BSA, nicotinamide, EGF, insulin, transferrin, and hydrocortisone (HDM2). The wells were inoculated with HCV in the presence of different concentrations of VX-950 and incubated for 15 hours at 37° C. The non-adsorbed virus was removed, the cultures washed twice with DMEM, then fresh HDM2 containing the same concentration of VX-950 was added. After incubation for an additional 47 hours, the wells were rinsed twice with PBS then the cells lysed with chaotropic buffer and RNA isolated using the Qiagen 96-well RNeasy procedure. HCV RNA was quantitated using the multiplex RT-PCR method and the mean and standard deviation of the triplicate samples at each concentration of inhibitor are presented (HCV copy number per well). […] See, FIG. 3.

CCC[C@H](NC(=O)C1[C@H]2CCC[C@H]2CN1C(=O)[C@@H](NC(=O)[C@@H](NC(=O)c1cnccn1)C1CCCCC1)C(C)(C)C)C(=O)C(=O)NC1CC1 (stereo partly shown) [VX-950]
inhibition of HCV replication (HCV RNA copy number per well): nearly complete inhibition of HCV replication
